Experiment [1] concerns HIV-1 (HIV-1 RF, HIV-1 NL4-3) in CEM-SS / MT-2 cells. As to the kind of experiment: Cytopathic effect (CPE) inhibition assay (XTT/MTT dye reduction). The experiment is classed as cell-based. As for the experimental part:
T-cell lines, CEM-SS, and MT-2, and viruses HIV-1 RF and HIV-1 NL4-3 (pNL4-3) were obtained from the National Institutes of Health (AIDS Research and Reference Reagent Program, Bethesda, Md.).
Cytopathic Effect (CPE) Inhibition Assays
The ability of compounds to protect cells against HIV infection was measured by the […] dye reduction method, essentially as described (See Pauwels, R. Balzarini, J. Baba, M. Snoeck, R. Schols, D. Herdewijn, P. Desmyter, J. and De Clercq, E. 1988, “Rapid and automated tetrazolium-based colorimetric assay for the detection of anti-HIV compounds,”. J Virol. Methods., 20: 309–321 and Weislow, O. S. Kiser, R. Fine, D. L. Bader, J. Shoemaker, R. H. and Boyd, M. R. 1989. “New soluble-formazan assay for HIV-1 cytopathic effects: application to high-flux screening of synthetic and natural products for AIDS-antiviral activity”. J. Natl. Cancer Inst. 81:577–586). Subject cells were infected with test virus at an moi of 0.025 to 0.819 or mock infected with medium only and added at 2×10^4 cells per well into 96 well plates containing half-log dilutions of test compounds. Six days later, 50 μl of XTT (1 mg/ml XTT tetrazolium, 0.02 nM phenazine methosulfate) was added to the wells and the plate was reincubated for four hours. Viability, as determined by the amount of XTT formazan produced, was quantified spectrophotometrically by absorbance at 450 nm. Data from CPE assays were expressed as the percent of formazan produced in compound-treated cells compared to formazan produced in wells of uninfected, compound-free cells. The fifty percent effective concentration (EC50) was calculated as the concentration of compound that effected an increase in the percentage of formazan production in infected, compound-treated cells to 50% of that produced by uninfected, compound-free cells. The 50% cytotoxicity concentration (CC50) was calculated as the concentration of compound that decreased the percentage of formazan produced in uninfected, compound-treated cells to 50% of that produced in uninfected, compound-free cells. The therapeutic index was calculated by dividing the cytotoxicity (CC50) by the antiviral activity (EC50).

Experiment [2] deals with T1, HIV-1 protease (Q7S mutant form) (Human immunodeficiency virus type 1 group M subtype B, UniProt P04585, Q495S).
T1 construct: made in house
As to the kind of experiment: HIV-1 Protease RET assay. The experiment is classed as biochemical. The gist of the method: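 Q7S HIV-1 protease, refolded from urea, 2 nM active dimer with 5 μM EDANS/DABCYL peptide cleaved at Tyr-Pro; fluorescence 340/490 nm. 12 min at 37 °C in 0.1M sodium acetate pH 4.8, 1M NaCl, 10% DMSO. Ki from Morrison tight-binding fit.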

Setting [3] is: Human immunodeficiency virus 1, NL43, read-out: Ave CPE EC50.
Where [4] appears, read: Ave. Ki (nM), RET assay, Q7S enzyme, Morrison tight binding fit.
The mark [5] stands for this setting: Human immunodeficiency virus 1, NL43, unit inferred, read-out: EC50.

Like-named read-outs stand apart in the source and are kept apart here. Some results are limits rather than exact numbers.

This passage reports EC50 and Ki results from US7094909B2, “HIV protease inhibitors, compositions containing the same, their pharmaceutical uses and materials for their synthesis” (priority 2001, dated 2006).

With `COc1cccc(CNC(=O)[C@@H]2CC(F)(F)CN2C(=O)[C@@H](O)[C@H](Cc2ccccc2)NC(=O)c2cccc(O)c2C)c1` [Example C12, (S)-4,4-Difluoro-1-[(2S,3S)-2-hydroxy-3-(3-hydroxy-2-methyl-benzoylamino)-4-phenyl-butyryl]-pyrrolidine-2-carboxylic acid 3-methoxy-benzylamide], the EC50 in experiment [1] (setting [3]) came to 1770 nM. Affinity in experiment [2] (setting [4]) was put at a Ki of 2.7 nM.

Turning to `C=CCNC(=O)[C@H]1N(C(=O)[C@@H](O)[C@H](Cc2ccccc2)NC(=O)[C@@H](NC(=O)c2ccc3ccccc3n2)C(C)C)CSC1(C)C`, the half-maximal effective concentration (EC50) in experiment [1] (setting [5]) turned out to be 41 nM. In experiment [2] (Ki, unit inferred), the Ki is no more than 0.1 nM.

For `Cc1c(O)cccc1C(=O)N[C@@H](Cc1ccccc1)[C@H](O)C(=O)N1CSC(C)(C)[C@H]1C(=O)NCc1cccc2ccccc12` [Example A11, (R)-3-((2S,3S)-2-Hydroxy-3-{[1-(3-hydroxy-2-methyl-phenyl)-methanoyl]-amino}-4-phenyl-butanoyl)-5,5-dimethyl-thiazolidine-4-carboxylic acid (naphthalen-1-ylmethyl)-amide], the EC50 in experiment [1] (setting [3]) was found to be 144 nM. This molecule registered a Ki in experiment [2] (setting [4]) of 0.5 nM.

For the molecule `Cc1ccccc1CNC(=O)[C@H]1N(C(=O)[C@@H](O)[C@H](Cc2ccccc2)NC(=O)COc2cccc(N3CCOCC3)c2)CSC1(C)C`, the EC50 in experiment [1] (setting [5]) was no less than 3200 nM. Also, the affinity in experiment [2] (Ki, unit inferred), expressed as Ki, was 4.4 nM.

`C=CC(C)COC(=O)NC(Cc1ccccc1)[C@H](O)C(=O)N1CSC(C)(C)C1C(=O)NCc1ccccc1C` (stereo partly drawn): the EC50 in experiment [1] (setting [5]) was no less than 3200 nM. The molecule further yielded a Ki in experiment [2] (Ki, unit inferred) of 15.1 nM.

As to `Cc1c(O)cccc1C(=O)N[C@@H](Cc1ccccc1)[C@H](O)C(=O)N1CSC(C)(C)[C@H]1C(=O)NN(C)c1ccccc1` [Example A57, N-{(1S,2S)-1-Benzyl-3-[(R)-5,5-dimethyl-4-(N′-methyl-N′-phenyl-hydrazinocarbonyl)-thiazolidin-3-yl]-2-hydroxy-3-oxo-propyl}-3-hydroxy-2-methyl-benzamide], the concentration for a half-maximal effect (EC50) in experiment [1] (setting [3]) was 1530 nM. The Ki in experiment [2] (setting [4]) is 5.6 nM.

As for `Cc1c(O)cccc1C(=O)N[C@@H](Cc1ccccc1)[C@H](O)C(=O)N1CSC(C)(C)[C@H]1C(=O)NC1CCC(C(C)(C)C)CC1` (stereo partly drawn), the EC50 in experiment [1] (setting [5]) is 1230 nM. The Ki in experiment [2] (Ki, unit inferred) is 26 nM.

In the case of `Cc1ccccc1C(=O)N[C@@H](Cc1ccccc1)[C@H](O)C(=O)N1CSC(C)(C)[C@H]1C(=O)NCc1cccs1` [Example B79, (R)-3-{(2S,3S)-2-Hydroxy-4phenyl-3-[(1-o-tolyl-methanoyl)-amino]-butanoyl}-5,5-dimethyl-thiazolidine-4-carboxylic acid (thiophen-2-ylmethyl)-amide], in experiment [1] (setting [3]), the EC50 is 530 nM. Also, in experiment [2] (setting [4]), the Ki worked out at 0.78 nM.

For the molecule `C#CCOC(=O)N[C@@H](Cc1ccccc1)[C@H](O)C(=O)N1CSC(C)(C)[C@H]1C(=O)NCc1ccccc1C` [Example B10, {(1S,2S)-1-Benzyl-3-[(R)-5,5-dimethyl-4-(2-methyl-benzylcarbamoyl)-thiazolidin-3-yl]-2-hydroxy-3-oxo-propyl}-carbamic acid prop-2-ynyl ester], the EC50 in experiment [1] (setting [3]) worked out at 386 nM. The Ki in experiment [2] (setting [4]) is 0.57 nM.

With `CC1(C)SCN(C(=O)[C@@H](O)[C@H](Cc2ccccc2)NC(=O)CSc2nc[nH]n2)[C@@H]1C(=O)N[C@H]1CCOc2ccccc21` [Example B31, (R)-3-{(2S,3S)-2-Hydroxy-4-phenyl-3-[2-(1H-[1,2,4]triazol-3-ylsulfanyl)-ethanoylamino]-butanoyl}-5,5-dimethyl-thiazolidine-4-carboxylic acid (S)-chroman-4-ylamide], the concentration for a half-maximal effect (EC50) in experiment [1] (setting [3]) is greater than 1000 nM. The affinity in experiment [2] (setting [4]) corresponds to a Ki of 4.7 nM.

Take `C=CCNC(=O)[C@H]1N(C(=O)[C@@H](O)[C@H](Cc2ccccc2)NC(=O)CSc2nc[nH]n2)CSC1(C)C` [Example B25, (R)-3-{(2S,3S)-2-Hydroxy-4-phenyl-3-[2-(1H-[1,2,4]triazol-3-ylsulfanyl)-ethanoylamino]-butanoyl}-5,5-dimethyl-thiazolidine-4-carboxylic acid allylamide]: the concentration for a half-maximal effect (EC50) in experiment [1] (setting [3]) was greater than 1000 nM. Also, the Ki in experiment [2] (setting [4]) was 21 nM.

Turning to `Cc1ccccc1CNC(=O)[C@H]1N(C(=O)[C@@H](O)[C@H](Cc2ccccc2)NC(=O)C2CC2)CSC1(C)C` [Example B15, 3-[(S)-3-(Cyclopropanecarbonyl-amino)-2-hydroxy-4-phenyl-butyryl]-5,5-dimethyl-thiazolidine-4-carboxylic acid 2-methyl-benzylamide], the EC50 in experiment [1] (setting [3]) is 2300 nM. This molecule also registered a Ki in experiment [2] (setting [4]) of 1.3 nM.

For the molecule `CC1(C)SCN(C(=O)[C@@H](O)[C@H](Cc2ccccc2)NC(=O)c2cccc3c2CCN3)[C@@H]1C(=O)N[C@@H]1CCOc2ccccc21`, the EC50 in experiment [1] (setting [5]) turned out to be 1960 nM. Further, the Ki in experiment [2] (Ki, unit inferred) is 7.4 nM.

On to `Cc1cccc(C)c1OCC(=O)N[C@@H](Cc1ccccc1)[C@H](O)C(=O)N1CSC(C)(C)[C@H]1C(=O)NC[C@H]1CCCO1`, for which, in experiment [1] (setting [5]), the EC50 is no less than 1000 nM. Besides, the Ki in experiment [2] (Ki, unit inferred) was determined as 4.2 nM.

In the case of `Cc1ccccc1CNC(=O)[C@H]1N(C(=O)[C@@H](O)[C@H](Cc2ccccc2)NC(=O)O[C@H]2CCOC2)COC1(C)C` [Example C47, {(1S,2S)-1-Benzyl-3-[(S)-5,5-dimethyl-4-(2-methyl-benzylcarbamoyl)-oxazolidin-3-yl]-2-hydroxy-3-oxo-propyl}-carbamic acid (S)-(tetrahydro-furan-3-yl)ester], the EC50 in experiment [1] (setting [3]) was determined as 1380 nM. In addition, in experiment [2] (setting [4]), the Ki turned out to be 1.4 nM.

Take `Cc1cccc(C)c1OCC(=O)N[C@@H](Cc1ccccc1)[C@H](O)C(=O)N1CSC(C)(C)[C@H]1C(=O)NCc1ccco1` [Example B38, (R)-3-{(2S,3S)-3-[2-(2,6-Dimethyl-phenoxy)-ethanoylamino]-2-hydroxy-4-phenyl-butanoyl}-5,5-dimethyl-thiazolidine-4-carboxylic acid (furan-2-ylmethyl)-amide]: the EC50 in experiment [1] (setting [3]) was determined as 600 nM. Also, the affinity in experiment [2] (setting [4]) corresponds to a Ki of 0.16 nM.

As for `Cc1c(O)cccc1C(=O)N[C@@H](Cc1ccccc1)[C@H](O)C(=O)N1CC(F)(F)C[C@H]1C(=O)N[C@H]1CCCc2ccccc21` [Example C3, (S)-4,4-Difluoro-1-((2S,3S)-2-hydroxy-3-{[1-(3-hydroxy-2-methyl-phenyl)-methanoyl]-amino}-4-phenyl-butanoyl)-pyrrolidine-2-carboxylic acid (1,2,3,4-tetrahydro-naphthalen-1-yl)-amide], the EC50 in experiment [1] (setting [3]) was found to be 486 nM. The molecule also displayed a Ki in experiment [2] (setting [4]) of 0.16 nM.

On to `Cc1ccccc1CNC(=O)[C@@H]1CC(F)(F)CN1C(=O)[C@@H](O)[C@H](Cc1ccccc1)NC(=O)C1C(C)C(=O)ON1C` (stereo partly drawn), for which the EC50 in experiment [1] (setting [5]) was no less than 3200 nM. The molecule also yielded an inhibition constant Ki in experiment [2] (Ki, unit inferred) of 3.6 nM.

For `Cc1ccccc1CNC(=O)[C@H]1C2CCC(C2)N1C(=O)[C@@H](O)[C@H](Cc1ccccc1)NC(=O)c1cccc(O)c1C` (stereo partly drawn), in experiment [1] (setting [5]), the EC50 came out at 4000 nM. The same molecule came in with a Ki in experiment [2] (Ki, unit inferred) of 18.4 nM.

In the case of `CC1(C)SCN(C(=O)[C@@H](O)[C@H](Cc2ccccc2)NC(=O)[C@@H]2CCCO2)[C@@H]1C(=O)N[C@H]1CCOc2ccccc21`, the 50% effective concentration (EC50) in experiment [1] (setting [5]) stood at 1250 nM. The Ki in experiment [2] (Ki, unit inferred) is 7.5 nM.

For `Cc1ccccc1CNC(=O)[C@H]1N(C(=O)[C@@H](O)[C@H](Cc2ccccc2)NC(=O)C(F)(F)F)CSC1(C)C`, in experiment [1] (setting [5]), the EC50 was 2200 nM. Further, in experiment [2] (Ki, unit inferred), the Ki was determined as 17.1 nM.

Consider `Cc1c(O)cccc1C(=O)N[C@@H](Cc1ccccc1)[C@H](O)C(=O)N1CC(F)(F)C[C@H]1C(=O)NCc1ccccc1Cl` [Example C10, 4,4-Difluoro-1-[2-hydroxy-3-(3-hydroxy-2-methyl-benzoylamino)-4-phenyl-butyryl]-pyrrolidine-2-carboxylic acid 2-chloro-benzylamide], for which the EC50 in experiment [1] (setting [3]) came out at 1290 nM. In experiment [2] (setting [4]), this molecule yielded an inhibition constant Ki of 1.5 nM.

Consider `Cc1c(O)cccc1C(=O)N[C@@H](Cc1ccccc1)[C@H](O)C(=O)N1CSC(C)(C)[C@H]1C(=O)N[C@@H]1CCCc2sccc21` [Example A49, 3-[2-Hydroxy-3-(3-hydroxy-2-methyl-benzoylamino)-4-phenyl-butyryl]-5,5-dimethyl-thiazolidine-4-carboxylic acid (4,5,6,7-tetrahydro-benzo[b]thiophen-4-yl)-amide], for which the EC50 in experiment [1] (setting [3]) is 161 nM. Further, affinity in experiment [2] (setting [4]) was put at a Ki of 0.49 nM.

As to `CC1(C)SCN(C(=O)[C@@H](O)[C@H](Cc2ccccc2)NC(=O)CSc2nc[nH]n2)[C@@H]1C(=O)NCC#N`, the EC50 in experiment [1] (setting [5]) is no less than 3200 nM. Besides, the Ki in experiment [2] (Ki, unit inferred) amounted to 28 nM.

As a reminder, the EC50 is the concentration needed to bring the measured effect to its halfway point. By Ki is commonly meant the equilibrium dissociation constant of an inhibitor or competing ligand from its target.
